Patent US11179372B2, “Isoxazoline solution containing vitamin E for use with sanitized drinking water” (Intervet Inc., priority 2015, dated 2021)

Legend:
[1] = Tolerance of Fluralaner in laying hens (Example 1); format: in vivo, chickens; details: 0.5-2 mg/kg BW via medicated drinking water
Description: Experimental animals were chickens, particularly laying hens of about 30 weeks old. These were housed in a standard poultry house. Apparently healthy birds were assigned in a random way to treatment groups kept separately, and labelled individually. The birds were kept under natural light, and were given several days for acclimatization; drinking water consumption in each group was measured on three days prior to administration to calculate the average daily water consumption. Medicated water was prepared by diluting a concentrated Fluralaner solution (10 mg/ml) to the desired concentration of Fluralaner in regular tap water (hypochlorite <0.5 ppm). […]
The dose to be administered was calculated based on average body weights of each treatment group, measured one day before treatment (day −1, day 6). A concentrated Fluralaner solution was diluted in the drinking water to prepare medicated drinking water ready for consumption, via the following dosing regimen: • The volume of medicated water offered per group on day 0 (group D also on day 7) was approximately 50% of the calculated mean daily water intake measured previously in the respective group in order to ensure consumption of the full dose. • Once all medicated water was consumed the other 50% volume of the mean daily water intake was supplied as unmedicated tap water in the same drinker.

[2] = Tolerance and plasma concentrations of Fluralaner in laying hens (Example 2); format: in vivo, chickens
Description: No vitamin E was present in the concentrated Fluralaner solution used to prepare the medicated drinking water.
The effectivity of an oral dosing regimen of Fluralaner was tested by administering medicated drinking water (via gavage) to laying hens, in 2 repeated doses of 0.25, 0.5 or 1.0 mg/kg body weight, administered 7 days apart, and challenging them with infestation by Northern fowl mites, via source birds and natural infestation. The birds were kept in separate pens, at 11 birds per pen.

[3] = Variation of concentration of vitamin E, Fluralaner in 5 ppm hypochlorite; format: physicochemical; details: used at 1:10.000; for Reduction t = 0 to t = 7 in %: 5 ppm ClO-, 40° C./75% RH
Description: While in Example 4.3 alpha-tocopherol was used in the pharmaceutical composition at 8.2% w/w, it was now tested at 80% of that value, namely at 6.6% w/w. Pharmaceutical compositions according to the invention were prepared, containing either 8.2 or 6.6% w/w alpha-tocopherol. Also one base composition was prepared without protector. These were diluted 1:10.000 to prepare medicated drinking waters with 1 μg/ml Fluralaner. Next hypochlorite was added to 5 ppm, and 20 ml samples were filled-out in 50 ml glass vials, sealed with a rubber stopper, and stored for 7 days at 40° C./75% RH. The amount of Fluralaner of the three samples was measured at t=0 and at t=7 days using UHPLC. The concentration of the vitamin E in the final test sample was 1:10,000 of 6.6 or 8.2% w/w.

[4] = Vitamin E 0 % w/w in pharm. comp.
[5] = Vitamin E 6.6 % w/w in pharm. comp.
[6] = Vitamin E 8.2 % w/w in pharm. comp.

Q: For `Cc1cc(C2=NOC(c3cc(Cl)cc(Cl)c3)(C(F)(F)F)C2)ccc1C(=O)NCC(=O)NCC(F)(F)F` (stereo not drawn) [Fluralaner], which “Tolerance in the hens” value [1] is on record?
A: The value was “well tolerated”.

Q: What about the “Tolerance in the hens” value ([2]; 2 single doses of 0.25, 0.5, or 1 mg/kg BW, 7 days apart, oral) of the same compound?
A: The value was “well tolerated”.

Q: What about the “Concentrations of Fluralaner in the birds' plasma” value ([2]; doses 0.25, 0.5, 1.0 mg/kg BW twice) of the same compound?
A: Its value is “increased proportionally to the dose administered”.

Q: And the “Fluralaner conc. after incubation in 5 ppm ClO- at 40° C./75% RH, for t = 0 d” value [3, 4]?
A: Its value is 0.80 µg/mL.

Q: What about the “Fluralaner conc. after incubation in 5 ppm ClO- at 40° C./75% RH, for t = 7 d” value [3, 4] of the same compound?
A: The value was 0.15 µg/mL.

Q: And the “Reduction t = 0 to t = 7 in %” value [3, 4]?
A: Its value is 81%.

Q: And the “Fluralaner conc. after incubation in 5 ppm ClO- at 40° C./75% RH, for t = 0 d” value [3, 5]?
A: Its value is 0.91 µg/mL.

Q: And the “Fluralaner conc. after incubation in 5 ppm ClO- at 40° C./75% RH, for t = 7 d” value [3, 5]?
A: The value was 0.49 µg/mL.

Q: And the “Reduction t = 0 to t = 7 in %” value [3, 5]?
A: Its value is 46%.

Q: And the “Fluralaner conc. after incubation in 5 ppm ClO- at 40° C./75% RH, for t = 0 d” value [3, 6]?
A: Its value is 0.90 µg/mL.

Q: What about the “Fluralaner conc. after incubation in 5 ppm ClO- at 40° C./75% RH, for t = 7 d” value [3, 6] of the same compound?
A: The value was 0.49 µg/mL.

Q: And the “Reduction t = 0 to t = 7 in %” value [3, 6]?
A: The value was 46%.
